According to patent publication US8901129B2, “Methods of facilitating neural cell survival using GDNF family ligand (GFL) mimetics or RET signaling pathway activators” (GeneCode AS, priority 2009, dated 2014):

How the values were obtained:
[1] = system: GFRα1/RET-expressing cells; experiment: Reporter-gene luciferase activity assay, dose-response (FIG. 5); format: cell-based; conditions: 1-50 μM, 24 h
Method: Generation of stable cell lines. MG87RET murine fibroblast were plated on […] dishes and transfected with 4 μg of G4-Luc, Gal4-Elk (Baloh et al., 2000) and GFRα1 expressing plasmid (“αLUC” cells) or empty vector (“NOα” cells) containing neomycin-resistance gene in ratio 4:1:1 using Lipofectamine 2000 (Invitrogen) for DNA delivery as described by manufacturer. The following day, cells were trypsinized and plated in low density on 10-cm tissue culture dishes. Stable transformants were selected in the presence of 500-750 μg/ml geneticin (Invitrogen). Established cell lines were maintained in DMEM, 10% fetal bovine serum (FBS), 100 μg/ml Normocin (Invivogene), 2 μg/ml of puromycin, 500 μg/ml of geneticin, 15 mM HEPES, pH 7.2. Pathdetect Elk-1 system and human GFRα1-expressing plasmid (“Strat-Luc” cells) or empty vector (control cell line “NOStratis”) cells were selected and maintained in the DMEM, 10% FBS, 100 μg/ml Normocin (Invivogene), 2 μg/ml of puromycin, 500 μg/ml of G418, 2 μg/ml of blasticidin S, 15 mM HEPES, pH 7.2.
Cells were plated on 96-well plates (or 384-well) in cell density 20 000 (or 5 000 for 384-well format) cells per well in DMEM, 10% FBS, 100 μg/ml Normocin, 2 μg/ml puromycin, 500 μg/ml of G418, 15 mM HEPES, pH 7.2 one day before assay. The following day, the compounds were added to a final concentration of 1-50 μM. Structures of the compounds are shown in the description of FIG. 5, above. Cells were allowed to produce luciferase for 24 h, then lysed in 20 μl of 1×Cell culture lysis reagent (Promega) and freeze-thawed once to ensure complete lysis. Then 5 μl of the lysate was mixed (on ice) with 20 μl of luciferase assay substrate (Promega) in a well of black Isoplate (PerkinElmer). Luminescence was counted on MicroBeta 2 counter (PerkinElmer) twice. Data are presented as fold induction, where the corresponding concentration of DMSO was used as a reference.

6-OHDA lesioned rats = experiment: Amphetamine induced rotation asymmetry in 6-OHDA rat model of Parkinson's disease (FIG. 7); format: in vivo; conditions: for amphetamine-induced ipsilateral rotation: 3 weeks after 6-OHDA, measured 6 weeks after 6-OHDA; for amphetamine-induced ipsilateral rotation of lesioned rats: injected into striatum 3 weeks after 6-OHDA, dose not stated
Text: The objective of this study is to investigate the effect of intrastriatally (i.s.) administered small molecule GDNF mimetics (compounds 13, 16, 319H6 and 292651, structures shown in the description of the Figures, above) in a rat model 6-OHDA of Parkinson's disease. In the sub-acute lesion model used in this study, the lesion of the substantia nigra (SNc) that slowly progresses over weeks is created by injection of 6-OHDA into the proximity of the dopaminergic terminals in the striatum (Kirik-D 1998, Exp. Neurol. 152:259-277). In this model, a portion of the nigrostriatal projection is left intact, which can serve as a substrate for regeneration and functional recovery in response to growth promoting and neuroprotective agents.
GDNF mimetics compounds, GDNF or vehicle is administered to the striatum at 3 weeks after the exposure to the neurotoxin 6-OHDA. The selective damage to dopaminergic neurons in the SNc, as well as striatal levels of dopamine and its metabolites are evaluated 12 weeks after the injection of 6-OHDA with tyrosine hydroxylase (TH) immunohistochemistry and HPLC, respectively. In addition, the behavioral impairment of rats is evaluated by forelimb asymmetry test (cylinder test), amphetamine induced rotation asymmetry test and Y-maze test for stereotypic spontaneous rotation deficits.
Animals: All animal experiments are carried out according to the National Institute of Health (NIH) guidelines for the care and use of laboratory animals, and approved by the State Provincial Office of Southern Finland. Altogether 108 male Wistar rats, purchased from Charles River, Germany and weighing 220-275 g are used for the experiment. Animals are housed at a standard temperature (22±1° C.) and in a light-controlled environment (lights on from 7 am to 8 pm) with ad libitum access to food and water. Animals are grouped as follows:
In order to generate partial retrograde degeneration into the SNc, 6-OHDA lesioning is carried out according to Sauer and Oertel with modifications (Sauer and Oertel, 1994). Male Wistar rats are anesthetized with 5% isoflurane (in 70% N2O and 30% O2; flow 300 ml/min) and placed in a stereotactic frame. During the operation concentration of anesthetic is reduced to 1-1.5%. The rectal temperature is maintained at 37.0±1.0° C. with a homeothermic blanket system. The right brain hemisphere is exposed through a small craniectomy to the skull. The dura mater is carefully removed with fine forceps and a stereotaxic injection of 6-OHDA (4 μg/μl) is made into the right striatum. A total of 7 μl of 6-OHDA is infused at a speed of 0.5 μl/min and is equally distributed between 4 sites at the following coordinates: AP+1.0, ML+2.8, DV−6.0, −5.5, −5.0 and −4.4 mm. The cannula is left in place for another 5 min before being withdrawn. The hole in the skull is subsequently filled with repair material and the skin is closed and disinfected. The rats are allowed to recover from anesthesia and are carefully monitored for possible post surgical complications. The animals are returned to the home cages with ad libitum access to food and water.
On day 21, rats are re-anesthetized with 5% isoflurane (in 70% N2O and 30% O2; flow 300 ml/min) and placed in a stereotactic frame. During the operation concentration of anesthetic is reduced to 1-1.5%. The rectal temperature is maintained at 37.0±1.0° C. with a homeothermic blanket system. The right brain hemisphere is exposed through a small craniectomy to the skull. A stereotaxic injection of the test compound, GDNF or vehicle is made into the right striatum. Each dosing solution is infused at a speed of 1 μl/min and is equally distributed between 4 sites at the following coordinates: AP+1.0, ML+2.8, DV−6.0, −5.5, −5.0 and −4.4 mm. The cannula is left in place for another 5 min before being withdrawn. The hole in the skull is subsequently filled with repair material and the skin is closed and disinfected. […]

Row | Compound | induction of luciferase expression [1] | amphetamine-induced ipsilateral rotation (6-OHDA lesioned rats; 0.2 ug intrastriatal) | amphetamine-induced ipsilateral rotation of lesioned rats (6-OHDA lesioned rats) | amphetamine-induced ipsilateral rotation (6-OHDA lesioned rats; intrastriatal (Group 5: 0.5 ug per rat)) | amphetamine-induced ipsilateral rotation (6-OHDA lesioned rats; 1 ug intrastriatal)
1 | CCN(CC)S(=O)(=O)c1ccc(OC)c(N2CCN(C(=O)c3cc(F)ccc3C(F)(F)F)CC2)c1 [BT13] | in a dose-dependent manner induce luciferase expression | reduced amphetamine-induced ipsilateral rotation | significantly reduce | – | –
2 | COc1ccc(S(=O)(=O)N2CCc3ccccc3C2)cc1N1CCN(C(=O)c2cc(F)ccc2C(F)(F)F)CC1 [BT16] | in a dose-dependent manner induce luciferase expression | – | significantly reduce | reduced amphetamine-induced ipsilateral rotation | –
3 | COc1cc2c(cc1OC)CN(S(=O)(=O)c1ccc(OC)c(N3CCN(C(=O)c4cc(F)ccc4C(F)(F)F)CC3)c1)CC2 [BT18] | active | – | significantly reduce | – | reduced amphetamine-induced ipsilateral rotation
